Results on 1 compound are retold here after article PMC6274259, “New 3-Cyano-2-Substituted Pyridines Induce Apoptosis in MCF 7 Breast Cancer Cells” (Molecules, 2016).

For assay [1], the system named is MCF-7 cells. The assay can be described thus: Enzyme linked immunosorbent apoptosis assay (Cell Death Detection ELISA PLUS). Type of assay: cell-based, human. The procedure:
Compound 9a was further investigated for induction of apoptosis in MCF-7 cells using Cell Death Detection ELISA^PLUS which is used for the quantitative in vitro determination of cytoplasmic histone-associated DNA fragments (mono- and oligonucleosomes) in apoptosing cells.
Cells were seeded at a density of 2 × 10^4/ well in a 96-well plate and incubated for 24 h. […] An ELISA assay was performed using Cell Death Detection ELISA PLUS kit (Roche-Applied Science, Indianapolis, IN, USA) for the quantitative in vitro determination of cytoplasmic histone-associated DNA fragments (mono- and oligonucleosomes) in apoptosing cells. Briefly, cells were lysed with 200-μL lysis buffer for 30 min at room temperature. The lysate was centrifuged at 200 g for 10 min. 150 μL of supernatant was collected, of which 20 μL was incubated with anti-histone biotin and anti-DNA peroxidase at room temperature for 2 h. After washing with incubation buffer three times, 100 μL of substrate solution (2,2′-azino-di(3-ethylbenzthiazolinsulphonic acid) was added to each well and incubated for 15–20 min at room temperature. The absorbance was measured using an ELISA reader (Spectra Max Plus) at 405 nm. The control group was cells without compounds treatment. Each assay was done in triplicate and the standard deviation was determined.
A general note: ELISA stands for enzyme-linked immunosorbent assay.

The subject of assay [2] is MCF-7 cells. In words: Morphological examination of MCF-7 cells. The format is cell-based, human. The conditions noted are these: 24 h. The method, then:
The morphological changes in MCF-7 cells were followed up after treatment with different concentrations of compound 9a (0.05, 0.1, 0.5, 2, 5 and 10 μM) for 24 h. […] Untreated cells were used as a negative control.
Morphological examination was performed as described previously; MCF-7 cells were plated on 96 well plates using 5 × 10^4 cells/well and allowed to reach 75%–85% confluence. The compounds were added to the medium, untreated cells were used as negative control, in addition to blank cells (medium) and vehicle which consist of (DMSO 0.4% + cells). After treatment, all the cells were incubated for 24 h in an atmosphere containing 5% CO2. After […] of treatment, the morphological changes of the cells were examined and photographs were taken using an inverted microscope at 400× magnification.

Assay [3] concerns RKO human colon carcinoma cell line. In words: WST-1 cell viability assay, RKO. The format is cell-based. The conditions noted are these: Homo sapiens, Colon carcinoma cell; WST-1, 24 h treatment, mean ± S.D of three independent experiments. An excerpt:
The synthesized compounds were screened for their cytotoxicity on five cancer cell lines, namely SK-OV-3, MCF-7, MDA-MB-231, HCT-116 and RKO, using a WST colorimetric assay. The assay principle is based upon the reduction of the tetrazolium salt WST-1 to formazan by cellular mitochondrial dehydrogenases present in viable cells. […] Among the latter compounds the benzohydrazide derivative 9a emerged with the lowest IC50 in this study against MCF-7 cells compared to 5-FU. […] Based on the fact that 9a had less cytotoxic effects on normal breast epithelial cells it was subjected to further studies.
The following cell lines were used for the screening stage, obtained from the American Type Culture Collection (ATCC, Manassas, VA, USA); SK-OV-3 (HTB-77), MCF-12A (ATCC CRL-10782), MDA-MB-231 (ATCC HTB-26), HCT-116 (CCL-247), RKO (CRL-2577) and sub-culturing of the above cell lines was conducted in 75 cm^2 flasks. The old culture media was removed and discarded after assessing the confluency of the cells and the cells were rinsed with 2–3 mL diluted trypsin (1×) (trypsin/EDTA solution consists of 0.025% trypsin and 0.01% EDTA in PBS), for about 5 minutes for complete detachment. The cells were observed under the inverted microscope until the cell layer is completely dispersed. 75 cm^2 flasks were prepared and 16 mL of DMEM media for SK-OV-3, MCF-7, MDA-MB-231, (DMEM 4500 mg glucose) and RPMI media for HCT-116 were added to each flask. The cells were aspirated gently and added to the flasks. DMEM 4500 mg/L high glucose with 10% FBS, 5% streptomycin and penicillin, RPMI 1640 (prepared by adding 5% heat-inactivated FCS and 2 mm glutamine) were used. DMEM was also used for MCF-12A cells with the addition of human epidermal growth factor 20 ng/mL, insulin 0.01 mg/mL and hydrocortisone 500 ng/mL.
The synthesized compounds were screened for their anti-proliferative activity using 5-FU (F6627-1G, Sigma-Aldrich, St. Louis, MO, USA) as reference compound. A concentration of 0.4% DMSO was used in all experiment after ensuring 100% viability of the cell lines with this concentration. A 25 mM stock concentration of all compounds was prepared for further studies and analysis.
Cells were trypsinized and placed in a 15 mL Falcon tube, the cells were centrifuged for 3 min at 1000 rpm. Trypsin is decanted using a sterile pipette and then the pellet is loosened by flicking the tube few times then 5–10 mL warm DMEM or RPMI were added to the Falcon tube and the pellet is resuspended. Cell count was done next by taking 10 μL of the suspension into the cell counting slide and read under 10× cells/mL. A cell stock of 50,000 cells/mL was prepared for the 96 wells. Cells (100 μL) were added to each well using a sterile pipette each time to ensure consistency. The experiment was planned ahead of time using excel sheet, 3–6 wells were reserved as blank media while 3–6 wells for vehicle (DMSO). The plate was incubated for 24 h for compound treatment step. DMEM media was used to prepare different dilutions of the compounds. The old DMEM media was removed from the wells using sterile pipette in the hood and the media was replaced with 100 μL media with each compound. The plate was incubated for 24 h. After 24 h incubation, WST-1 reagent (Sigma) was added to each well and then the plate was incubated for 1 h before measuring the absorbance using VICTOR™ Multilabel Plate Reader (Perkin Elmer, Beaconsfield, UK). The absorbance of the colored solution can be quantified by measuring at a certain wavelength (usually between 500–600 nm), in this experiment the first reading was conducted at 540 nm and the second reading at 690 nm for the reference wavelength. The percentage of cell viability was determined as the ratio of the absorbance of the sample vs the control. Three independent experiments were performed. […] 5-Florouracil (Sigma-Aldrich, F6627-1G) was used as reference standard.
A general note: Tetrazolium dyes change colour on reduction, which living cells bring about.

For the compound `COc1ccc(-c2cc(-c3ccc(OC)c(OC)c3)c(C#N)c(OCC(=O)NNC(=O)c3ccccc3)n2)cc1OC` [Compound 9a, N'-[2-(3-cyano-4,6-bis(3,4-dimethoxyphenyl)pyridin-2-yloxy)acetyl]benzohydrazide], the “induction of apoptosis, concentration dependence” value in the assay with MCF-7 cells [1] (0.1 to 4 μM) was “increased in a dose dependent fashion”. Besides, the “induction of apoptosis, exposure time with optimum value” with MCF-7 cells [1] (exposure 3 h to 48 h) stood at 24 h. Further, the morphological changes entry in the assay with MCF-7 cells [2] (0.05, 0.1 and 0.5 μM) is “no morphological changes were observed”; with MCF-7 cells [2] (2, 5 and 10 μM), “apoptotic features were observed”. Further, in assay [3], 8.22 ± 0.99 µM corresponded to half-maximal inhibition (IC50).
